Earlier results as cited in patent US6872523B1, “Materials and methods for molecular detection of clinically relevant pathogenic fungal species” (The Board of Regents of the University of Nebraska, priority 2000, dated 2005).

Key:
A. flavus = conditions: high end of the reported MIC range
A. niger = conditions: low end of the reported MIC range
A. nidulans = conditions: high end of the reported MIC range
A. fumigatus = conditions: low end of the reported MIC range
A. terreus isolates = conditions: share of A. terreus isolates resistant to AmB (refs 10, 17, 22)

AmB MIC (A. flavus): 16 µg/mL
AmB MIC (A. niger): 0.5 µg/mL
AmB MIC (A. nidulans): 16 µg/mL
AmB MIC (A. fumigatus): 0.5 µg/mL
SMILES: C[C@@H]1[C@H](O)[C@@H](C)/C=C/C=C/C=C/C=C/C=C/C=C/C=C/[C@H](O[C@@H]2O[C@H](C)[C@@H](O)[C@H](N)[C@@H]2O)C[C@@H]2O[C@](O)(C[C@@H](O)C[C@@H](O)[C@H](O)CC[C@@H](O)C[C@@H](O)CC(=O)O[C@H]1C)C[C@H](O)[C@H]2C(=O)O [AmB, amphotericin B]
isolates reported as resistant (A. terreus isolates): over 95%
